Among the data in ChEMBL document CHEMBL1201862, “PubChem BioAssay data set” (2004) are AC50, EC50 and IC50 values, retold here.

The source made the active and inactive calls. Unless noted, no cut-off for these calls is given here.

Assay [1] is described as follows: viability loss in HepG2 hepatoma cells – cell-based, ATP luminescence, cherry-pick, activator set 2, cytotoxicity control, dose response (AID 1053143). The assay is classed as functional.
A short description of assay [2]: general mammalian cell viability loss – inhibitor set, cherry-pick, set 2, cytotoxicity control for miR-122 modulator project, dose response (AID 720697). The assay is classed as functional, cell-based.
A further assay has as its target Transthyretin (Homo sapiens, UniProt P02766). The assay is described as follows: Luminescence-based cell-based high throughput dose response assay to identify activators of Transthyretin (TTR) transcription. The assay is classed as functional.
Assay [3] in a line: Dd2 parasite growth inhibition in erythrocytes – SYBR Green, dry powder samples, set 4, dose response (AID 1159572). The assay is classed as functional, cell-based.
A short description of assay [4]: HepG2 viability loss by ATP level – cell-based, CellTiter-Glo luminescence, cherry-pick, set 4, cytotoxicity control, dose response (AID 743480). The assay is classed as functional.
Assay [5] can be described thus: M. tuberculosis H37Rv growth inhibitors, H37Rv strain (AID 1626). The assay is classed as functional.
Assay [6] can be described thus: A549 lung cell viability reduction – CellTiter-Glo luminescence, cherry-pick, cytotoxicity control, dose response (AID 743484). The assay is classed as functional, cell-based.
The nature of another assay: cells. To be noted: HEK293.
Assay [7] in a line: toxicity to A549 lung cells – cell-based, plate reader, dry powder, set 6, cytotoxicity control, dose response (AID 743312). The assay is classed as functional.
Assay [8] is described as follows: ATP-based viability loss in HepG2 cells – cell-based, CellTiter-Glo luminescence, dry powder, set 3, cytotoxicity control, dose response (AID 720594). The assay is classed as functional.
Assay [9] is described as follows: ATP-based viability loss in HEK293T cells – cell-based, CellTiter-Glo luminescence, dry powder, set 2, cytotoxicity control, dose response (AID 720595). The assay is classed as functional. The note with it: HEK293.
A short description of assay [10]: dual-tagged ARNT PAS-B bead signal quenchers – biochemical, dry powder, artefact control for ARNT/TACC3 disruptor project, dose response (AID 720564).
Assay [11] is described as follows: Late stage assay provider results from the probe development effort to identify inhibitors of the Plasmodium falciparum M18 Aspartyl Aminopeptidase (M18AAP): radiolabel-based cell-based dose response assay to identify compounds that inhibit P. falciparum growth in RBCs, Set 2.. The assay is classed as functional.
Assay [12] is described as follows: ATP-based viability loss in HeLa cells – cell-based, CellTiter-Glo luminescence, dry powder, set 2, cytotoxicity control, dose response (AID 720593). The assay is classed as functional.
Assay [13] can be described thus: viability loss in A549 lung cells – cell-based, 24 h, CellTiter-Glo luminescence, cherry-picks, cytotoxicity control, dose response (AID 1053115). The assay is classed as functional. To be noted: A549, 24 h.
Assay [14] in a line: P. falciparum Dd2 growth inhibitors, dose response, SYBR Green, cherry-picked samples (AID 1159567). The assay is classed as functional, cell-based.
A short description of assay [15]: MITF Orthogonal Assay: SK-MEL-5 CTG Assay Measured in Cell-Based System Using Plate Reader - 2084-02_Inhibitor_Dose_DryPowder_Activity_Set7. The assay is classed as functional.
Assay [16] is described as follows: inhibitors of TRPM1-promoter reporter in SK-MEL-5 – cell-based, luciferase, dry powder, set 8, MITF inhibitor project, dose response (AID 624430). The assay is classed as functional.
The nature of assay [17]: MITF: Counter assay: A375 proliferation Measured in Cell-Based System Using Plate Reader - 2084-03_Inhibitor_Dose_DryPowder_Activity_Set8. To be noted: A-375. The assay is classed as functional.
Assay [18] is described as follows: IC50 of Artemis nuclease activity blockers – biochemical, fluorescence intensity, dose response (AID 720701).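 Note: Artemis endonuclease enzyme.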 The assay is classed as functional.

Consider `Cc1nc(-c2ccc(C(=O)Nc3ccc(F)cc3)cc2)cs1`, for which, in assay [1], the AC50 was 26 µM (active). Consider `CCN(CC)CCOc1cccc(C(C)C)c1`, for which the AC50 in assay [2] was 6.91 µM (active). Consider `Cc1cc(C(=O)N2CCc3ccccc32)n(-c2ccccc2)n1`, for which the EC50 at Transthyretin is > 167 µM (inactive). For `COc1ccc2c3c([nH]c2c1)[C@H](CO)NCC31CCN(C(=O)Nc2ccccc2F)CC1`, in [3], the concentration at half-maximal activity (AC50) is 1.52 µM (active).

As to `COc1ccc(NC(=O)c2ccc(-c3ccc([N+](=O)[O-])cc3)o2)cc1`, the AC50 in assay [4] and in assay [6] was > 52 µM (inactive) in each case. For the same compound, in [5], the concentration for half-maximal inhibition (IC50) is > 100 µM (active). Consider `Cc1ccc(OCCn2cnc3ccccc32)c(C(C)C)c1`, for which the half-maximal activity concentration (AC50) in the assay “cells” is 39.8 µM (active); in assay [7], 24.5 µM (active). On to `CC1CCN(S(=O)(=O)c2ccc(C(=O)Nc3nnc(-c4ccccc4)o3)cc2)CC1`, for which the values for the AC50 in [8], in [9] and in [10] were > 52 µM (inactive), 2.57 µM (active) and 86.8 µM (active), respectively. For `COc1ccc(CNc2c3ccccc3nc3ccccc23)cc1OC`, the IC50 in assay [11] was 1.05 µM (active). With `CSc1ccc(-c2nnc(NC(=O)c3ccc(S(=O)(=O)N4CCC(C)CC4)cc3)o2)cc1`, the results for the AC50 in assay [12], in assay [8] and in assay [9] were > 52 µM (inactive), > 52 µM (inactive) and 9.24 µM (active), respectively. In the case of `OC[C@H]1Nc2ccc(-c3ccccc3)cc2[C@H]2[C@@H]1CCN2Cc1ccc(F)cc1`, the results for the AC50 in [13] and in [14] were 46.4 µM (active) and 1.25 µM (active), respectively.

For `CN1CCN(C2=C(Nc3ccc(Br)cc3)C(=O)c3ccccc3C2=O)CC1`, the AC50 is 7.8 µM (active) in [15], 5.56 µM (active) in assay [16] and 27 µM (active) in assay [17]. Regarding `CCCCn1/c(=N/C(=O)c2ccc3c(c2)OCO3)c(C#N)cc2c(=O)n3cccc(C)c3nc21`, in assay [18], the IC50 is > 20 µM (inactive).
